Test results as given in ChEMBL document CHEMBL1148359, “Design, synthesis, and biological evaluation of 2,4-diamino-5-methyl-6-substituted-pyrrolo[2,3-d]pyrimidines as dihydrofolate reductase inhibitors” (J Med Chem, 2004).

Experiments:
[1] = molecular target: T1, Dihydrofolate reductase (Rattus norvegicus, UniProt Q920D2); assay: Inhibitory concentration against Dihydrofolate reductase from rat liver
T1 sequence (Q920D2 whole entry): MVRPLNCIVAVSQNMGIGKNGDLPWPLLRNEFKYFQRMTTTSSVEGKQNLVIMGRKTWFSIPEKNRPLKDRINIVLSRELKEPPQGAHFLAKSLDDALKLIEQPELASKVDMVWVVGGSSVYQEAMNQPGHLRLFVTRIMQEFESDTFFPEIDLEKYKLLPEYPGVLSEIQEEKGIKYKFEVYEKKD

[2] = molecular target: T2, Dihydrofolate reductase (Mycobacterium avium, UniProt O30463); assay: Inhibitory concentration against Dihydrofolate reductase from Mycobacterium avium (Mycobacterium avium)
T2 sequence (O30463 whole entry): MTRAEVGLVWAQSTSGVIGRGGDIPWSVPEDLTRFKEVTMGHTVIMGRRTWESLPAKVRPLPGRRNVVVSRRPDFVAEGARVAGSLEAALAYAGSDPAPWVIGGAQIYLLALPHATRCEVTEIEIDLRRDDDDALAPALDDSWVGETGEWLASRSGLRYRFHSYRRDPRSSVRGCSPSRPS

[3] = molecular target: T3, Dihydrofolate reductase (Pneumocystis carinii, UniProt P16184); assay: Inhibition of Dihydrofolate reductase from Pneumocystis carinii (Pneumocystis carinii)
T3 sequence (P16184 whole entry): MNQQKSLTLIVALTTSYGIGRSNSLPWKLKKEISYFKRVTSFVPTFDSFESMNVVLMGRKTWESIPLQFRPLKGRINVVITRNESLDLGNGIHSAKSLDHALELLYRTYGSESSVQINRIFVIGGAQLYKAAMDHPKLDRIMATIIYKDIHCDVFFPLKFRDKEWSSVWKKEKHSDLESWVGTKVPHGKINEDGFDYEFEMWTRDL

[4] = molecular target: T4, Bifunctional dihydrofolate reductase-thymidylate synthase (Toxoplasma gondii, UniProt Q07422); assay: Inhibitory concentration against Dihydrofolate reductase from Toxoplasma gondii (Toxoplasma gondii)
T4 sequence (Q07422 whole entry): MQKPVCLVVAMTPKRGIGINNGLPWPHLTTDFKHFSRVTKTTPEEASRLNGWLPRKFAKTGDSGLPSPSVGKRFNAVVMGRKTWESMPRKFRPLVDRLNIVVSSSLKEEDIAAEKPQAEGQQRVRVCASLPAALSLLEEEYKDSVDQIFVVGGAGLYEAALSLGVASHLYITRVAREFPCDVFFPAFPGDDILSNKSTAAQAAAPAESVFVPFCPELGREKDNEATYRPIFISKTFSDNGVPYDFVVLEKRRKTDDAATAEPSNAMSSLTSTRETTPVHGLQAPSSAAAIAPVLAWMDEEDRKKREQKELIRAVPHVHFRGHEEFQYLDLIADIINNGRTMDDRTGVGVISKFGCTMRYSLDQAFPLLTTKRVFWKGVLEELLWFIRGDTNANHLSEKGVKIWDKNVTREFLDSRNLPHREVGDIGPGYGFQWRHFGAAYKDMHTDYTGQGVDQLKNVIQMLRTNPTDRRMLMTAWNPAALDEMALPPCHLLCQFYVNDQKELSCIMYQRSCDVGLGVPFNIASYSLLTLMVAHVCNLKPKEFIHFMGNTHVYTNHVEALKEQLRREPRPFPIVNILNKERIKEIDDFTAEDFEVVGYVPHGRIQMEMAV

[5] = Selectivity ratio (IC50 rlDHFR)/(IC50 maDHFR)
[6] = Selectivity ratio (IC50rlDHFR)/(IC50 tgDHFR)
[7] = Selectivity ratio [(IC50 rlDHFR)/(IC50 pcDHFR)
[8] = molecular target: T5, Dihydrofolate reductase (Pneumocystis carinii) (UniProt P16184); assay: Inhibition against Dihydrofolate reductase from Pneumocystis carinii (Pneumocystis carinii) at 12 uM of compound
T5 sequence (whole entry): T3 sequence (P16184 whole entry)

Structure (SMILES)	IC50 [1]	IC50 [2]	IC50 [3]	IC50 [4]	Selectivity ratio [5]	Selectivity ratio [6]	Selectivity ratio [7]	inhibition [8]
COc1ccccc1Sc1[nH]c2nc(N)nc(N)c2c1C	2.32 µM	0.3 µM	22 µM	–	–	–	–	–
COc1cc(CC2CN=C(N)N=C2N)cc(OC)c1OC (centres undefined)	–	0.3 µM	–	–	–	–	–	–
COc1cccc(Sc2[nH]c3nc(N)nc(N)c3c2C)c1	2.06 µM	1.37 µM	60.2 µM	–	–	–	–	–
Cc1c(Sc2cccc3ccccc23)[nH]c2nc(N)nc(N)c12	–	0.7 µM	–	0.16 µM	6.92	27.9	0.12	–
COc1ccc(OC)c(Sc2[nH]c3nc(N)nc(N)c3c2C)c1	7.8 µM	–	–	0.17 µM	–	–	–	–
COc1ccc(Sc2[nH]c3nc(N)nc(N)c3c2C)cc1	31.3 µM	0.6 µM	112 µM	–	–	–	–	–
Cc1c(Sc2cccc(Cl)c2)[nH]c2nc(N)nc(N)c12	47.7 µM	4.4 µM	–	–	–	–	–	–
Cc1c(Sc2ccc(Cl)cc2Cl)[nH]c2nc(N)nc(N)c12	110 µM	19 µM	> 12 µM	20 µM	5.79	5.5	–	14%
Cc1c(Sc2ccc(Cl)cc2)[nH]c2nc(N)nc(N)c12	19 µM	4 µM	16.7 µM	–	–	–	–	–
